The source of these data is patent publication US20220087275A1, “MAGNESIUM ION AS ANTIBACTERIAL AGENT” (THE STATE OF ISRAEL, MINISTRY OF AGRICULTURE & RURAL …, priority 2016, published 2022).

Read-outs that look alike come from different tables or passages of the source.

Data set [1] has as its system Bacillus subtilis wild strain NCIB3610. The data set is described as follows: Pellicle (biofilm) formation in LBGM broth. The data set is classed as cell-based. The note with it: for biofilm formation by B. subtilis: NaCl or CaCl2 added to LBGM, results not shown; for pellicle formation by B. subtilis: LBGM medium, 30° C., 24 h. The method, then:
Plates were incubated at 30° C. for 24 h.

A further data set relates to epsA-O operon. Kind of data set: β-Galactosidase transcriptional fusion, matrix gene expression (eps). The data set is classed as cell-based, Bacillus subtilis. The following applies: for expression of the eps operon: similar concentrations of NaCl or CaCl2. The source says:
(§1) To analyze the effect of magnesium ions on matrix gene expression a transcriptional fusions of the promoters for eps and tapA to the gene encoding β galactosidase were used. Samples of generated pellicles as described above were collected and resuspended in phosphate-buffered saline (PBS) buffer. Typical long bundled chains of cells in the biofilm colony were disrupted using mild sonication as described previously. Optical density of the cell samples was normalized using OD600. One milliliter of cell suspensions was collected and assayed for (3-Galactosidase activity as described previously.
(§2) The effect of Mg^2+ ions on matrix gene expression was examined by using transcriptional fusions of the promoters for epsA-O and tapA to the gene encoding β galactosidase.

The subject of data set [2] is tapA operon. Kind of data set: β-Galactosidase transcriptional fusion, matrix gene expression (tapA). Format: cell-based, Bacillus subtilis. The note with it: for expression of the tapA operon: similar concentrations of NaCl or CaCl2.
Source text: as §1, §2

Data set [3] concerns tapA operon. The note with it: increase of 1, 3 or 5 mM; particularly 5 mM MgCl2. The method, then: The effect of increase in concentration of Mg′ within milk on the expression of tapA operon, which is one of the major operon for matrix production, was examined. For this purpose, B. subtilis were grown within cow's milk and cow's milk with an increase of 1 mM, 3 mM or 5 mM in concentration of magnesium ions. Further, transcriptional fusions of tapA promoter to the gene encoding cyan fluorescent protein (CFP) were utilized.

For data set [4], the system named is B. subtilis. The note with it: at 50 mM and higher (50 and 80 mM tested). The source says: Further, the effect of magnesium ions on biofilm formation by B. subtilis within orange juice enriched medium, was examined.
For data set [5] the following is noted: 50 mM or 100 mM MgCl2; B. subtilis culture, 5 hours, 37° C. The method, then: Cultures were incubated for 5 hours at 37° C. and 50 rpm and pH was measured every hour using pH strips.
Data set [6] has as its system B. subtilis. The method, then:
The effect of magnesium ions on biofilm formation within cow's milk was examined. A skilled artisan will appreciate that magnesium concentration within cow's milk typically ranges between 4-6 mM.

In the next data set the test system is B. subtilis NCIB3610. The following applies: LBGM, tested concentrations (5-100 mM MgCl2). As for the experimental part:
Initially, the cells were grown in shaking cultures over night at 23° C./150 rpm in LB to around 2×10^9 CFU per ml. […] The absorbance of the cultures at 600 nm was measured periodically for each culture for 9 hours. Each condition had 3 replicates, and the growth curve experiments were repeated twice.

The test system of data set [7] is Bacillus subtilis wild strain NCIB3610. The note with it: high concentrations of Mg ions; solid LBGM, 30° C., 72 h.
Method: For routine growth, all strains were propagated in Lysogeny broth (LB; 10 g of tryptone, 5 g of yeast extract and 5 g of NaCl per liter) or on solid LB medium supplemented with 1.5% agar. For biofilm generation, bacteria were grown to stationary phase in LB medium at 37° C. in shaking culture to around 1×10^8 CFU per ml. Biofilms were generated at 30° C. in the biofilm promoting medium LBGM (LB+1% (v/v) glycerol+0.1 mM MnSO4). […] For colony type biofilm formation, 3 μl of the cells (around 3×10^5 CFU) was spotted onto LBGM medium solidified with 1.5% agar as described previously. Plates were incubated at 30° C. for 72 h prior to analysis. For pellicle formation, 5 μl of the cells (around 5×10^5 CFU) was mixed within 4 ml of LBGM broth in 12-well plates (Costar). Plates were incubated at 30° C. for 24 h. Images were taken using a Zeiss Stemi 2000-C microscope with an axiocam ERc 5s camera.
The subject of data set [8] is B. subtilis. The note with it: milk supplemented with additional 3 mM or 5 mM MgCl2. The source says: The effect of increase in the concentration of magnesium ions was examined. […] The survival rate of bacteria following pasteurization was examined.
How the values of data set [9] were obtained:
In order to examine milk clotting parameters, milk samples obtained from the dairy farm of the Agricultural Research Organization (ARO; Bet Dagan, Israel). […] Milk-clotting parameters such as rennet clotting time (RCT; min) and curd firmness (CF; V) after 90 min (CF-90) which are measured with an Optigraph instrument (Ysebaert, Frepillon, France) as described by Leitner et al. (2011). Results are presented in a graph. The point in which the curve is split into two curves, represents the rennet Clotting Time (RCT), which is the time between the addition of the clotting enzyme and the beginning of the coagulation process. The curd firmness is derived from the distance of the two curves in the graph 30 min after the addition of the clotting enzyme, or 90 minutes after the addition of the clotting enzyme.

In data set [10] the test system is B. subtilis cells (YC161 with Pspank-gfp). The following applies: 25 mM MgCl2 and higher; 24 h in LBGM.
Method: For fluorescent microscopy, the strain YC161 that produced GFP constitutively, was used. The strain was first grown in shaking culture for 5 h 37° C./150 rpm in LB to around 1×10^8 CFU per ml. Next, 5 μl (around 5×10^5 CFU) of suspension from the generated culture was introduced into 4 ml of LBGM medium and incubated at 30° C. for 24 h statically. Afterwards, one milliliter of suspension from each sample was collected, mildly sonicated (10 sec/20% Amp/5) and centrifuged at 5000 rpm for 2 min. Next, the supernatant was removed and the pellet was re-suspended by pipetting. For microscopic observation, 34, from the samples were transferred onto a glass slide and visualized in a transmitted light microscope using Nomarski differential interference contrast (DIC), at ×40 magnification. A confocal laser scanning microscope was used to visualize GFP expression of strain YC161 using an Olympus IX81 confocal laser scanning microscope (Japan) equipped with 488 nm argon-ion and 543 nm helium neon lasers.
Next, the effect of magnesium ions was visualized microscopically by testing bundling phenotype of fluorescently tagged B. subtilis cells (YC161 with Pspank-gfp), that produce GFP constitutively.
The subject of data set [11] is Bacillus subtilis NCIB 3610.
Method: Additional experiments were conducted in order to evaluate the effect of magnesium ions on colony type biofilm formation by Bacillus subtilis on a solid surface. First a starter culture was prepared by growing bacteria from the strain Bacillus subtilis NCIB 3610 in an LB (Lysogeny broth) medium at 37° C., 150 rpm for 5 hours. […] Following these steps, 3 μl of the starter culture were spotted onto each of the solid biofilm promoting mediums. The samples were incubated at 30° C. for 72 hours prior to analysis. Images were taken using a Zeiss Stemi 2000-C microscope with an axiocam ERc 5s camera.
Setting [12] is: elevated concentrations of Mg2+ ions, pellicles in LBGM.

Take `[Ca+2].[Cl-].[Cl-]` [CaCl2]: the “biofilm formation by B. subtilis” value in data set [1] was “none of those compounds could inhibit the biofilm formation in the same manner as MgCl2”. For the same molecule, the “expression of the eps operon” value in the data set on epsA-O operon is recorded as “not downregulated in a similar manner”. In addition, the “expression of the tapA operon” value with tapA operon [2] is “not downregulated in a similar manner”.

Consider `[Cl-].[Cl-].[Mg+2]` [MgCl2, magnesium chloride], for which the “expression of the tapA operon within milk” value with tapA operon [3] was “reduced drastically”. Further, in data set [1], the “pellicle formation by B. subtilis” value is on record as “inhibited notably pellicle formation by B. subtilis in a concentration dependent manner”. The “colony type biofilm formation within orange juice enriched medium” value with B. subtilis [4] is given as “inhibits colony type biofilm formation”. The “pH of the milk” value in data set [5] was “does not affect the pH of the milk”. In the data set with B. subtilis [6] (5 mM increase of MgCl2 concentration), the “biofilm bundles within milk” value is “biofilm bundles are almost totally diminished”. In addition, the “biofilm formation by B. subtilis within milk” value in the data set on B. subtilis [6] (cow's milk, magnesium increase of 1, 3 or 5 mM) is recorded as “inhibit biofilm formation by B. subtilis within milk”; in the data set with B. subtilis [6] (magnesium concentration increased by 1 mM), “inhibitory effect of Mg2+ ions is notable”. Besides, the “bacterial growth within milk” value in the data set with B. subtilis [6] (increased Mg ions concentration within milk) is recorded as “not significantly affected”. For the same molecule, the “reduction in eps expression” value in the data set on epsA-O operon (setting [12]) is “around 4 fold”. In the data set with B. subtilis NCIB3610, the bacterial growth result is “did not affect bacterial growth”. For the same molecule, the “colony type biofilm formation” value in [7] is recorded as “inhibited significantly”. The “susceptibility of bacteria to heat pasteurization” value with B. subtilis [8] is listed as “increase the susceptibility of bacteria to heat pasteurization”. In addition, the “decrease in RCT” value in [9] (addition of 1 mM MgCl2) is given as “about 32%”; in [9] (addition of 3 mM MgCl2) it was around 51%; in data set [9] (addition of 5 mM MgCl2) it was around 62%; in [9] (addition of 7 mM MgCl2), around 70%; in data set [9] (addition of 10 mM MgCl2), around 84%; in data set [9] (addition of 15 mM MgCl2), around 73%. In addition, the “decrease in RCT” value in data set [9] (addition of 20 mM MgCl2) is recorded as around 74%. Moreover, the “increase in curd firmness” value is given as “about 37%” in [9] (addition of 1 mM MgCl2); around 54% in data set [9] (addition of 3 mM MgCl2); around 69% in data set [9] (addition of 5 mM MgCl2); around 82% in data set [9] (addition of 7 mM MgCl2); around 84% in data set [9] (addition of 10 mM MgCl2); around 90% in [9] (addition of 15 mM MgCl2). The “increase in curd firmness” value in data set [9] (addition of 20 mM MgCl2) is listed as around 72%. Moreover, the “bundling ability of B. subtilis cells” value in data set [10] is listed as “significant reduction in bundling ability”. In addition, in data set [11] (magnesium ions 20 mM or 50 mM spread onto a solid surface), the “biofilm formation by B. subtilis on solid surface” value is listed as “reduced biofilm formation”. Also, the “biofilm formation onto pre-treated surface, stronger effect” value in [11] (solution of 20 mM MgCl2 as printed (second sentence)) was “inhibitory effect is more significant”. Besides, the “biofilm formation by B. subtilis onto pre-treated surface” value in [11] (surface spread with solution of 20 mM MgCl2, 30° C., 72 h) was “inhibitory effect on biofilm formation”. Further, the “decrease in tapA expression” value in the data set with tapA operon [2] (setting [12]) is reported as around 14.5 fold.

For `O=S(=O)([O-])[O-].[Mg+2]` [MgSO4, magnesium sulfate], the “pellicle formation by B. subtilis” value in data set [1] is “inhibited the pellicle formation”.

With `[Cl-].[Na+]` [NaCl], the “biofilm formation by B. subtilis” value in [1] is reported as “none of those compounds could inhibit the biofilm formation in the same manner as MgCl2”. Further, the “expression of the eps operon” value with epsA-O operon is given as “not downregulated in a similar manner”. Further, the “expression of the tapA operon” value with tapA operon [2] is on record as “not downregulated in a similar manner”.
